From patent publication US8563603B2, “Polycyclic compounds and methods related thereto” (Cornell University, priority 2008, dated 2013)

Key:
[1] = tested on: human breast cancer cell line MD-MBA-231; assay: Bioactivity-guided percent apoptosis, Annexin V/Propidium iodide FACS, 48-h incubation; assay type: cell-based; design: key: % of cells (Annexin V/PI FACS); conditions: Table E5; Dose 100
Protocol: Apoptosis was evaluated against human breast cancer cell line MD-MBA-231. Cells were maintained in RPMI 1640 medium (PAA Laboratories GmbH, Teddington Middlesex, UK) supplemented with 10% heat-inactivated tetracycline-free fetal calf serum (PAA Laboratories) and 2 mM L-glutamine, 100 units/ml penicillin, and 100 μg/ml streptomycin (Gibco, Grand Island, N.Y.). Cells were propagated and cultured at 37° C. in a 100% relative humidified atmosphere consisting of 5% C02 and 95% air. Cells were trypsinized with 0.05% Trypsin-0.2% EDTA (w/v) solution.
The bioactivity-guided isolation of the compounds was performed using percent apoptosis in human breast cancer cells (cell line MD-MBA-231) as the reporter. Cells were seeded in a standard 24-well microtiter plate at a density of 1.5×10^4 cells/well in […] tissue culture medium. After a 24-h incubation period cells were treated with individual fractions from the wood of Guaiacum officinale L. Test compounds were mixed in solution using DMSO as vehicle (10 μg extract/1 ml DMSO), at 30 μl. Following a 48-h incubation period, the induction of apoptosis in cell cultures was analyzed by fluorescence-activated cell sorter (FACS Caliber Becton Dickinson, San Jose, Calif.), double staining with Annexin V/Propidium iodide.
Three fractions were chosen for further evaluation based on their apoptotic activity, yields, and simplicity of their HPLC profiles. Fraction 5 was obtained by combining F5 and F6, and fraction 13 by combining fractions 13 and 14. Fraction 8 was not combined with any other. Combinations were based on TLC profiles, (FIG. 17). The percent apoptosis was calculated by using Annexin V/FITC staining and flow cytometry (Table E4).

cell line MD-MBA-231 = assay: Cell cycle analysis by DNA content (hypotonic PI staining, flow cytometry); assay type: cell-based, human; conditions: for % events in sub G0 (apoptotic events) / effect on cell populations in S-phase, significance / effect on cell population in G2/M / singlet count: 1.2, 6.0, 30.0 ppm; for % events in sub G0 (apoptotic events) / effect on cell populations in S-phase, significance / % of cells in S-phase / effect on cell population in G2/M / singlet count: 24 h
Protocol: Twenty-four hours after exposure to compounds, 25×10^4 cells in 1.5 ml cells were simply re-suspended following either the Annexin V/FITC assay or the trypsin procedures. Cells were centrifuged at 1000-x g at room temperature and washed in 0.5 ml of hypotonic staining solution. Cells were kept a minimum of 30 min. at 4° C. in the dark. Samples were usually analyzed by flow cytometry on the same day or at 24 hrs. Resulting DNA distributions were analyzed for the proportion of cells in apoptosis and in G0/G1, S, and G2/M phases of the cell cycle. Singlet events were gated and 10,000-20,000 events were acquired within the gated region. All experiments were repeated at least three times, each in duplicate.
The cell cycle comprises steps that regulate the correct temporal sequence of events that control the growth, reproduction and differentiation of cells. The cell cycle consists of 4 phases: G0/G1, S (DNA synthesis), G2, and M (mitosis). In addition, checkpoints located in the cell cycle transition ensure that cell growth and division occur in response to appropriate signals and environment. When proliferating, if cells are subjected to DNA damage the cell cycle temporarily pauses either at G1, S or G2 phase. Arrest at these checkpoints prevents DNA replication and mitosis in the presence of unrepaired DNA damage and presumably allows time for DNA repair to occur. The proportion of cells that arrest in G1, S or G2 after damage depends on cell type, growth conditions, type of damage and the checkpoints operative in the cells. Shifts in the redistribution of phases of the cell cycle in response to various stimuli can be readily assessed by flow cytometry. DNA content analysis with the use of PI is one of the most common assays. The use of intercalating dyes to measure DNA content are the most common and are usually sufficient to determine relative shifts in the phases of the cell cycle. The hypotonic solution lyses the plasma membrane and prevents many of the aggregate problems associated with fixed cells. Propidium Iodide(PI) passes through permeabilized cell membranes and intercalates with cellular DNA. Therefore, the intensity of the PI signal is directly proportional to DNA content. DNA content experiments determine the percent induction of apoptosis and relative distribution of the cell cycle phases.
The percent of apoptotic cells (cells with fractional DNA content; sub G1 cells) were established by estimating the percentage of events showing up in sub G0. The Sub-G1 method relies on the fact that after DNA fragmentation, there are small fragments of DNA that may be eluted. However in order to be seen in the Sub G1 area, a cell must have lost enough DNA to appear there; so if cells enter apoptosis from the S or G2/M phase of the cell cycle or if there is an aneuploid population undergoing apoptosis, they may not appear in the Sub G1 peak. The number of events in sub G1 (number of nuclear fragments) provides no information on the # of cells undergoing apoptosis.

[2] = tested on: Human breast cancer cell line MB-MDA-231; assay: Annexin V FITC / PI apoptosis detection by flow cytometry, 24 h; assay type: cell-based; conditions: 24 h; for early stage apoptosis, FITC (+)/PI (−) staining, significance: 1.2, 6.0, 30.0 ppm
Protocol: Human breast cancer cell line MB-MDA-231 were cultured in Dulbecco's Modified Eagle's medium (DMEM-Sigma, D-5648), supplemented with 10% (heat-inactivated) Fetal Bovine Serum (Atlanta Biologicals, Inc.) and Antibiotic Solution, 100× (Sigma A-9909). Cells were gown at 37° C., at 5-7% CO2, and 95% humidity and were obtained from the American Type Culture Collection (ATCC). Cells were trypsinized with 0.05% Trypsin-0.2% EDTA (w/v) solution (Invitrogen Corporation, Carlsbad, Calif.).
The induction of apoptosis in MB-MDA-231 was analyzed using a well-validated Annexin V FITC apoptosis detection kit (Calbiochem), Darzynkiewicz, 1998. The phosphatidylserine (PS)-specific dye Annexin-V is used to detect apoptotic-specific changes to the organization of phospholipids leading to exposure of PS on the cell surface that precedes nuclear breakdown, DNA fragmentation, and the appearance of most apoptosis-associated molecules. For these studies cells were seeded at 25×10^4 cells/1.5 ml in a 24 well microtiter plate. Cells were allowed to adhere to plates for 24 h, and then exposed to lignans of the present invention at 5-fold dilutions of 30 μl, 6 μl, and 1.2 μl per well for 24 h. Test compounds were mixed in solution using DMSO as vehicle (10 mg extract/1 ml DMSO). Camptothecin was used as a positive control. Following the incubation period 700 μl of suspended cells were transferred to 15 ml conical tubes. Cells that remained adhered to the 24-well plates were gently washed with PBS (137 mM NaCl, 2.7 mM KCL, 4.3 mM Na2HPO4-7H2O, 1.4 mM KH2PO4, adjusted to pH 7.4), trypsinized with 1 ml of solution (0.05% Trypsin—0.2% EDTA [w/v]), and resuspended with the suspended cells/media collected in the 15 ml conical tubes from the previous step. 10 μl of media-binding reagent and 1.25 μl Annexin V-FITC was added to the 15 ml conical tubes containing both the 700 μl of suspended cells and the resuspended cells and incubated at room temperature for 15 min, at 18-24° C., in the dark. Tubes were centrifuged for 5 minutes at 1000×g at room temperature. Media was removed and cells were gently resuspended in 0.5 ml cold 1×binding buffer (dilution; 5× Binding Buffer concentrate 1:5 with dH2O) and placed on ice. 10 μl of propidium iodide was added to each tube. Cells were placed on ice away from light and analyzed immediately by flow cytometry. The dual fluorescence emissions of the respective dyes were detected in cell preparations on a BD-Biosciences FACS Aria high-speed flow cytometer/cell sorter utilizing a quartz cuvette for interrogation. To quantify the Annexin V (FL1 at 518 nm) and propidium iodide (620 nm) signals, apoptosis-induced cells (CPT) stained with FITC only and apoptosis-induced cells (CPT) labeled with only propidium iodide were utilized. Necessary adjustments were made to minimize overlap between these two measurements. Typically, 10,000-20,000 cells were scored for each sample and classified as either viable, early apoptotic, or late apoptotic or necrotic. All experiments were repeated at least three times, each in duplicate.
The principal of the Annexin V/FITC assay is that, Annexin V, an anticoagulant protein, preferentially binds negatively charged phospholipids. Early in the apoptotic process, phospholipid asymmetry is disrupted leading to the exposure of phosphatidylserine (PS) on the outer leaflet of the cytoplasmic membrane. Annexin V binds to the negatively charged calcium-dependent PS. Conjugating FITC to Annexin V with simultaneous propidium iodide (PI) staining allows bivariate analysis of intact cells. Live, healthy cells are double negative, FITC (−)/PI (−), and are seen in the lower left quadrant [A3] of FACS cytograms. Cells that are FITC (+)/PI (−) [A4] are early apoptotic. Cell populations that are advanced apoptotic or necrotic are FITC (+)/PI (+) are located in quadrant [A2]. […]

SMILES | Apoptosis [1] | Necrosis [1] | % events in sub G0 (apoptotic events) (cell line MD-MBA-231) | effect on cell populations in S-phase, significance (cell line MD-MBA-231) | % of cells in S-phase (cell line MD-MBA-231; 30 ppm) | late stage apoptotic cell death count, FITC (+)/PI (+) ([2]; highest concentration) | early stage apoptosis, FITC (+)/PI (−) staining, significance [2] | early apoptosis surpassing that induced by camptothecin ([2]; 30 ppm) | effect on cell population in G2/M (cell line MD-MBA-231) | singlet count (cell line MD-MBA-231) | early apoptosis surpassing that induced by camptothecin ([2]; 6.0 ppm) | % of cells in S-phase (cell line MD-MBA-231; 1.2 ppm) | % of cells in S-phase (cell line MD-MBA-231; 6.0 ppm) | increase in % events at G2/M over isonectandrin B and nectandrin B (cell line MD-MBA-231; highest treatment) | increase in % events at G2/M over untreated cells (cell line MD-MBA-231; highest treatment)
C=C1[C@@H](c2ccc(O)c(OC)c2)O[C@@H](c2ccc(O)c(OC)c2)[C@@]12CCC1=C(C2)[C@@H](c2ccc(O)c(OC)c2)O[C@H]1c1ccc(O)c(OC)c1 [I-a] | 90.12 | 0.82 | strong apoptotic activity at 6.0 ppm, but then declined somewhat at 30 ppm | progressive decrease in % S-phase events with increasing drug concentration | < 3% | – | – | – | – | – | – | – | – | – | –
C=C1[C@@H](c2ccc(O)c(OC)c2)O[C@@H](c2ccc(O)c(OC)c2)[C@]12CCC1=C(C2)[C@@H](c2ccc(O)c(OC)c2)O[C@H]1c1ccc(O)c(OC)c1 [I-b] | 81.37 | 0.41 | significance at 6 and 30 ppm | significant decrease in cell populations at the two highest doses | 4.5% | 63% | – | – | – | – | – | – | – | – | –
COc1cc([C@H]2O[C@@H](c3ccc(O)c(OC)c3)[C@H](C)[C@@H]2C)ccc1O [I-c] | 92.9 | 1.81 | increased and significantly induced apoptotic activity at 30.0 ppm | inhibited cells from entering this stage as well in a concentration-dependent manner | – | – | significantly increased | 10% | significant reduction of cells at 6 and 30 ppm | reached minimal levels at 30 ppm | – | – | – | – | –
COc1cc([C@H]2O[C@@H](c3ccc(O)c(OC)c3)[C@@H](C)[C@H]2C)ccc1O [I-d] | 91.14 | 0.35 | increased and significantly induced apoptotic activity at 30.0 ppm | significantly inhibited cell populations in S-phase at all doses | 0% | – | significantly increased | 24% | lowest accumulation at 30 ppm | significance decreases at all doses | 10% | 8.2% | 4.7% | – | –
COc1cc([C@H]2O[C@H](c3ccc(O)c(OC)c3)[C@@H](C)[C@H]2C)ccc1O [I-e] | – | – | without showing increased number of events in sub G0 | significance at the highest concentration | – | – | did not show any significant increases | – | significant blockage in G2/M at 30 ppm | approximately equal level of cell death as shown with untreated cells | – | – | – | approximately 3 fold | 8%
COc1cc(C[C@@H](C)[C@@H](C)Cc2ccc(O)c(OC)c2)ccc1O [I-f] | – | – | no significant increases | did so at 30 ppm | 6% | – | – | – | – | – | – | – | – | – | –
